Reference: ChEMBL document CHEMBL3885881, “DrugMatrix”

Organism: Rattus norvegicus
Test: DrugMatrix - Regimen: Daily Repeat
Assay type: toxicity, organism-based, Sprague-Dawley
Design: regimen Daily Repeat, gender Male, age 6-8 weeks
Details: in vivo, po, route oral GAVAGE, […]; for ABSOLUTE BASOPHIL / ABSOLUTE EOSINOPHIL / ABSOLUTE LYMPHOCYTE / ABSOLUTE MONOCYTE / ABSOLUTE SEGMENTED NEUTROPHIL / BASOPHIL / EOSINOPHIL / ERYTHROCYTE COUNT / HEMATOCRIT / HEMOGLOBIN / LEUKOCYTE COUNT / LYMPHOCYTE / MEAN CORPUSCULAR HEMOGLOBIN / MEAN CORPUSCULAR HEMOGLOBIN CONCENTRATION / MEAN CORPUSCULAR VOLUME / MONOCYTE / NEUTROPHIL / NUCLEATED RED BLOOD CELLS / PLATELET COUNT: tissue Blood; for ALANINE AMINOTRANSFERASE / ALBUMIN / ALKALINE PHOSPHATASE / ASPARTATE AMINOTRANSFERASE / BLOOD UREA NITROGEN / CARBON DIOXIDE / CHLORIDE / CHOLESTEROL / CREATINE PHOSPHOKINASE / CREATININE / GLUCOSE / LACTATE DEHYDROGENASE / LIPASE / PHOSPHORUS / POTASSIUM / SODIUM / TOTAL BILIRUBIN / TOTAL PROTEIN / URIC ACID: tissue Plasma
[1] = 0 mg/kg, 72 h, dose level Control, time 3 day
[2] = 0 mg/kg, 120 h, dose level Control, time 5 day
[3] = 3 mg/kg, 72 h, dose level Low, time 3 day

Cc1cccc(Nc2ccncc2S(=O)(=O)NC(=O)NC(C)C)c1 [TORSEMIDE]
ABSOLUTE BASOPHIL [1]: 0 CELLS/uL | ABSOLUTE EOSINOPHIL [1]: 41.83 CELLS/uL | ABSOLUTE LYMPHOCYTE [1]: 8545.5 CELLS/uL | ABSOLUTE MONOCYTE [1]: 240 CELLS/uL | ABSOLUTE SEGMENTED NEUTROPHIL [1]: 906 CELLS/uL | BASOPHIL [1]: 0% | EOSINOPHIL [1]: 0.33% | ERYTHROCYTE COUNT [1]: 5.6 x10E6/uL | HEMATOCRIT [1]: 35.4% | HEMOGLOBIN [1]: 13.42 G/DL | LEUKOCYTE COUNT [1]: 9.73 x10E3/uL | LYMPHOCYTE [1]: 87.83% | MEAN CORPUSCULAR HEMOGLOBIN [1]: 23.98 pg | MEAN CORPUSCULAR HEMOGLOBIN CONCENTRATION [1]: 37.92 G/DL | MEAN CORPUSCULAR VOLUME [1]: 63.3 fL | MONOCYTE [1]: 2.5% | NEUTROPHIL [1]: 9.33% | NUCLEATED RED BLOOD CELLS [1]: 0 /100WBC | PLATELET COUNT [1]: 1032 x10E3/uL | ALANINE AMINOTRANSFERASE [1]: 72.83 u/L | ALBUMIN [1]: 4 G/DL | ALKALINE PHOSPHATASE [1]: 322.83 u/L | ASPARTATE AMINOTRANSFERASE [1]: 102.67 u/L | BLOOD UREA NITROGEN [1]: 12 mg/dL | CARBON DIOXIDE [1]: 34.33 mmol/L | CHLORIDE [1]: 97.67 MEQ/L | CHOLESTEROL [1]: 82.5 mg/dL | CREATINE PHOSPHOKINASE [1]: 410.33 u/L | CREATININE [1]: 0.18 mg/dL | GLUCOSE [1]: 164.5 mg/dL | LACTATE DEHYDROGENASE [1]: 119.5 u/L | LIPASE [1]: 11.83 u/L | PHOSPHORUS [1]: 9.52 mg/dL | POTASSIUM [1]: 5.56 MEQ/L | SODIUM [1]: 142.48 MEQ/L | TOTAL BILIRUBIN [1]: 0.18 mg/dL | TOTAL PROTEIN [1]: 5.77 G/DL | URIC ACID [1]: 0.48 mg/dL | ABSOLUTE BASOPHIL [2]: 0 CELLS/uL | ABSOLUTE EOSINOPHIL [2]: 0 CELLS/uL | ABSOLUTE LYMPHOCYTE [2]: 9065 CELLS/uL | ABSOLUTE MONOCYTE [2]: 341.33 CELLS/uL | ABSOLUTE SEGMENTED NEUTROPHIL [2]: 527 CELLS/uL | BASOPHIL [2]: 0% | EOSINOPHIL [2]: 0% | ERYTHROCYTE COUNT [2]: 5.25 x10E6/uL | HEMATOCRIT [2]: 34.08% | HEMOGLOBIN [2]: 13.5 G/DL | LEUKOCYTE COUNT [2]: 9.93 x10E3/uL | LYMPHOCYTE [2]: 91.17% | MEAN CORPUSCULAR HEMOGLOBIN [2]: 25.7 pg | MEAN CORPUSCULAR HEMOGLOBIN CONCENTRATION [2]: 39.62 G/DL | MEAN CORPUSCULAR VOLUME [2]: 64.93 fL | MONOCYTE [2]: 3.33% | NEUTROPHIL [2]: 5.5% | NUCLEATED RED BLOOD CELLS [2]: 0 /100WBC | PLATELET COUNT [2]: 1077.5 x10E3/uL | ALANINE AMINOTRANSFERASE [2]: 57.83 u/L | ALBUMIN [2]: 4.07 G/DL | ALKALINE PHOSPHATASE [2]: 319.17 u/L | ASPARTATE AMINOTRANSFERASE [2]: 83.33 u/L | BLOOD UREA NITROGEN [2]: 13.67 mg/dL | CARBON DIOXIDE [2]: 30.83 mmol/L | CHLORIDE [2]: 98.33 MEQ/L | CHOLESTEROL [2]: 64.83 mg/dL | CREATINE PHOSPHOKINASE [2]: 263.67 u/L | CREATININE [2]: 0.2 mg/dL | GLUCOSE [2]: 182.83 mg/dL | LACTATE DEHYDROGENASE [2]: 124 u/L | LIPASE [2]: 10.5 u/L | PHOSPHORUS [2]: 10 mg/dL | POTASSIUM [2]: 5.78 MEQ/L | SODIUM [2]: 142.48 MEQ/L | TOTAL BILIRUBIN [2]: 0.2 mg/dL | TOTAL PROTEIN [2]: 6 G/DL | URIC ACID [2]: 0.7 mg/dL | ABSOLUTE BASOPHIL [3]: 0 CELLS/uL | ABSOLUTE EOSINOPHIL [3]: 53.33 CELLS/uL | ABSOLUTE LYMPHOCYTE [3]: 14854 CELLS/uL | ABSOLUTE MONOCYTE [3]: 155 CELLS/uL | ABSOLUTE SEGMENTED NEUTROPHIL [3]: 1071 CELLS/uL | BASOPHIL [3]: 0% | EOSINOPHIL [3]: 0.33% | ERYTHROCYTE COUNT [3]: 5.34 x10E6/uL | HEMATOCRIT [3]: 33.73% | HEMOGLOBIN [3]: 13.07 G/DL | LEUKOCYTE COUNT [3]: 16.13 x10E3/uL | LYMPHOCYTE [3]: 92% | MEAN CORPUSCULAR HEMOGLOBIN [3]: 24.43 pg | MEAN CORPUSCULAR HEMOGLOBIN CONCENTRATION [3]: 38.7 G/DL | MEAN CORPUSCULAR VOLUME [3]: 63.07 fL | MONOCYTE [3]: 1% | NEUTROPHIL [3]: 6.67% | NUCLEATED RED BLOOD CELLS [3]: 0 /100WBC | PLATELET COUNT [3]: 969.67 x10E3/uL | ALANINE AMINOTRANSFERASE [3]: 67.33 u/L | ALBUMIN [3]: 3.93 G/DL | ALKALINE PHOSPHATASE [3]: 375.67 u/L | ASPARTATE AMINOTRANSFERASE [3]: 84.33 u/L | BLOOD UREA NITROGEN [3]: 11.33 mg/dL | CARBON DIOXIDE [3]: 26.67 mmol/L | CHLORIDE [3]: 101.33 MEQ/L | CHOLESTEROL [3]: 69.33 mg/dL | CREATINE PHOSPHOKINASE [3]: 255 u/L | CREATININE [3]: 0.29 mg/dL | GLUCOSE [3]: 162 mg/dL | LACTATE DEHYDROGENASE [3]: 201 u/L | LIPASE [3]: 11.67 u/L | PHOSPHORUS [3]: 10.23 mg/dL | POTASSIUM [3]: 5.87 MEQ/L | SODIUM [3]: 143.83 MEQ/L | TOTAL BILIRUBIN [3]: 0.2 mg/dL | TOTAL PROTEIN [3]: 5.6 G/DL | URIC ACID [3]: 0.93 mg/dL
